In patent publication US11833156B2, “Heterocyclic compounds as pad inhibitors” (JUBILANT EPIPAD LLC, priority 2017, dated 2023):
Where a name gives a salt, the structure may show the parent alone.

Biological target: PAD4 enzyme (Homo sapiens (Human), UniProt Q9UM07)
Assay: Ammonia Release Biochemical Assay (citrullination detected via ammonia release)
Details: PAD4 120 nM, substrate BAEE, 60-min preincubation, read-out: NH3 release
Experimental: Ammonia Release Biochemical Assay
Citrullination assay was detected via ammonia release. PAD4 enzyme was diluted to 120 nM in assay buffer (100 mM HEPES, 50 mM NaCl, 2 mM DDT, 0.6 mg/mL BSA, pH 7.4) added to wells containing various concentration of compound or DMSO vehicle (1% final) in black 384 well plate. Following a 60-min preincubation at room temperature, the reaction was initiated by the addition of substrate (1.5 mM BAEE in 200 mM HEPES, 50 mM NaCl, 350 uM CaCl2, 2 mM, pH 7.4). The reaction was stopped after 60 min by addition of stop/detection buffer containing 50 mM EDTA, 2.6 mM of o-phthaladehyde and 2.6 mM DTT. Assay was incubated at room temperature for 90 min before measuring fluorescence's (λex 405/λem 460 nm) on Tecan reader. IC50 was calculated using XL-fit software model 205. (Ref: Nat Chem Biol. 2015 March; 11(3):189-91).

Sequence of PAD4 enzyme (Q9UM07 whole entry): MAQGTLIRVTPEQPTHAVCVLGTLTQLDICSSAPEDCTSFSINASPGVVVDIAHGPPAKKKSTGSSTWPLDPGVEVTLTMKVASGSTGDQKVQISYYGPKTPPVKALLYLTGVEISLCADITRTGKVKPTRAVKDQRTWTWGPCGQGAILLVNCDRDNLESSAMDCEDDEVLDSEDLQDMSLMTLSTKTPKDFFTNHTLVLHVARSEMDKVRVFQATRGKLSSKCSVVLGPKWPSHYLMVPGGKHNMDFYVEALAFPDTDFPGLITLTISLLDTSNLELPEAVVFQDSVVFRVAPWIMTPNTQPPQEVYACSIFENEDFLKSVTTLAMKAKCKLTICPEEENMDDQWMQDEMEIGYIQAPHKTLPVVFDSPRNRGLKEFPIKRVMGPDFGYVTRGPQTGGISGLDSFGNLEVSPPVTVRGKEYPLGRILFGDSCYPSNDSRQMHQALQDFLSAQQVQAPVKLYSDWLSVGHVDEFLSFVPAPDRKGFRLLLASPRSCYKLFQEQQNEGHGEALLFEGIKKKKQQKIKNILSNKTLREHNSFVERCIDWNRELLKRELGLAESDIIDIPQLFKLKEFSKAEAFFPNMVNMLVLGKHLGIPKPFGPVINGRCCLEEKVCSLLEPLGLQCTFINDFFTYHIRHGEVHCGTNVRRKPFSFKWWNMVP

SMILES | IC50 [nM]
N[C@@H]1CCN(C(=O)c2cc3c4c(c2)nc(-c2cc5ccccc5n2CC2CC2)n4CCO3)C1 [Example 2, (R)-(3-aminopyrrolidin-1-yl)(2-(1-(cyclopropylmethyl)-1H-indol-2-yl)-3,4-dihydro-5-oxa-1,2a-diazaacenaphthylen-7-yl)methanone] | 1000 to 10000
N[C@@H]1CCCN(C(=O)c2cc3c4c(c2)nc(-c2cc5ccccc5n2CC2CC2)n4CCN3S(=O)(=O)c2ccc(Cl)cc2)C1 [Example 81, (R)-(3-aminopiperidin-1-yl)(6-((4-chlorophenyl)sulfonyl)-2-(1-(cyclopropylmethyl)-1H-indol-2-yl)-5,6-dihydro-4H-imidazo[1,5,4-de]quinoxalin-8-yl)methanone] | ≥ 10000
N[C@@H]1CCCN(C(=O)c2cc3c4c(c2)nc(-c2cc5ccccc5n2CC2CC2)n4CCN3S(=O)(=O)CCc2ccccc2)C1 [Example 79, (R)-(3-aminopiperidin-1-yl)(2-(1-(cyclopropylmethyl)-1H-indol-2-yl)-6-(phenethylsulfonyl)-5,6-dihydro-4H-imidazo[1,5,4-de]quinoxalin-8-yl)methanone] | 1000 to 10000
N[C@@H]1CCCN(C(=O)c2cc3c4c(c2)nc(-c2cc5cccc(Cl)c5n2Cc2cncnc2)n4CCO3)C1 [Example 88, (R)-(3-aminopiperidin-1-yl)(2-(7-chloro-1-(pyrimidin-5-ylmethyl)-1H-indol-2-yl)-3,4-dihydro-5-oxa-1,2a-diazaacenaphthylen-7-yl)methanone] | 1000 to 10000
N[C@@H]1CCCN(C(=O)c2cc3c4c(c2)nc(-c2cc5ccccc5n2CC2CC2)n4CCN3C2CC2)C1 [Example 78, (R)-(3-aminopiperidin-1-yl)(6-cyclopropyl-2-(1-(cyclopropylmethyl)-1H-indol-2-yl)-5,6-dihydro-4H-imidazo[1,5,4-de]quinoxalin-8-yl)methanone] | ≤ 1000
N[C@@H]1CCCN(C(=O)c2cc3c4c(c2)nc(-c2cc5ccccc5n2Cc2ccccc2F)n4CCN3)C1 [Example 70, (R)-(3-aminopiperidin-1-yl)(2-(1-(2-fluorobenzyl)-1H-indol-2-yl)-5,6-dihydro-4H-imidazo[1,5,4-de]quinoxalin-8-yl)methanone] | ≤ 1000
N[C@@H]1CCCN(C(=O)c2cc3c4c(c2)nc(-c2cc5ccccc5n2Cc2ccccn2)n4CCN3)C1 [Example 69, (R)-(3-aminopiperidin-1-yl)(2-(1-(pyridin-2-ylmethyl)-1H-indol-2-yl)-5,6-dihydro-4H-imidazo[1,5,4-de]quinoxalin-8-yl)methanone] | ≤ 1000
COCCn1c(-c2nc3cc(C(=O)N4CCC[C@@H](N)C4)cc4c3n2CCO4)cc2ccc(OC)cc21 [Example 21, (R)-(3-aminopiperidin-1-yl)(2-(6-methoxy-1-(2-methoxyethyl)-1H-indol-2-yl)-3,4-dihydro-5-oxa-1,2a-diazaacenaphthylen-7-yl)methanone] | ≤ 1000
N[C@@H]1CCCN(C(=O)c2cc3c4c(c2)nc(-c2cc5ccccc5n2CC(F)F)n4CCO3)C1 [Example 47, (R)-(3-aminopiperidin-1-yl)(2-(1-(2,2-difluoroethyl)-1H-indol-2-yl)-3,4-dihydro-5-oxa-1,2a-diazaacenaphthylen-7-yl)methanone] | ≤ 1000
N[C@@H]1CCCN(C(=O)c2cc3c4c(c2)nc(-c2cc5ccccc5n2CC2CCOCC2)n4CCO3)C1 [Example 40, (R)-(3-aminopiperidin-1-yl)(2-(1-((tetrahydro-2H-pyran-4-yl)methyl)-1H-indol-2-yl)-3,4-dihydro-5-oxa-1,2a-diazaacenaphthylen-7-yl)methanone] | 1000 to 10000
N[C@@H]1CCCN(C(=O)c2cc3c4c(c2)nc(-c2cc5ccccc5n2Cc2ncccc2F)n4CCO3)C1 [Example 26, (R)-(3-aminopiperidin-1-yl)(2-(1-((3-fluoropyridin-2-yl)methyl)-1H-indol-2-yl)-3,4-dihydro-5-oxa-1,2a-diazaacenaphthylen-7-yl)methanone] | ≤ 1000
N[C@@H]1CCCN(C(=O)c2cc3c4c(c2)nc(-c2cc5ccccc5n2Cc2ccc(CO)cc2)n4CCO3)C1 [Example 37, (R)-(3-aminopiperidin-1-yl)(2-(1-(4-(hydroxymethyl)benzyl)-1H-indol-2-yl)-3,4-dihydro-5-oxa-1,2a-diazaacenaphthylen-7-yl)methanone trifluoroacetic acid salt] | ≤ 1000
N[C@@H]1CCCN(C(=O)c2cc3c4c(c2)nc(-c2cc5ccccc5n2Cc2cnccn2)n4CCO3)C1 [Example 25, (R)-(3-aminopiperidin-1-yl)(2-(1-(pyrazin-2-ylmethyl)-1H-indol-2-yl)-3,4-dihydro-5-oxa-1,2a-diazaacenaphthylen-7-yl)methanone] | ≤ 1000
N[C@@H]1CCCN(C(=O)c2cc3c4c(c2)nc(-c2cc5cccc(Cl)c5n2Cc2ncccc2F)n4CCO3)C1 [Example 34, (R)-(3-aminopiperidin-1-yl)(2-(7-chloro-1-((3-fluoropyridin-2-yl)methyl)-1H-indol-2-yl)-3,4-dihydro-5-oxa-1,2a-diazaacenaphthylen-7-yl)methanone] | ≤ 1000
N[C@@H]1CCCN(C(=O)c2cc3c4c(c2)nc(-c2cc5cc(Br)ccc5n2CC2CC2)n4CCN3)C1 [Example 67, (R)-(3-aminopiperidin-1-yl)(2-(5-bromo-1-(cyclopropylmethyl)-1H-indol-2-yl)-5,6-dihydro-4H-imidazo [1,5,4-de]quinoxalin-8-yl)methanone] | ≤ 1000
N[C@@H]1CCCN(C(=O)c2cc3c4c(c2)nc(-c2cc5ccccc5n2Cc2ncccn2)n4CCO3)C1 [Example 27, (R)-(3-aminopiperidin-1-yl)(2-(1-(pyrimidin-2-ylmethyl)-1H-indol-2-yl)-3,4-dihydro-5-oxa-1,2a-diazaacenaphthylen-7-yl)methanone] | ≤ 1000
COCCn1c(-c2nc3cc(C(=O)N4CCC[C@@H](N)C4)cc4c3n2CCO4)cc2ccccc21 [Example 20, (R)-(3-aminopiperidin-1-yl)(2-(1-(2-methoxyethyl)-1H-indol-2-yl)-3,4-dihydro-5-oxa-1,2a-diazaacenaphthylen-7-yl)methanone] | ≤ 1000
N[C@@H]1CCCN(C(=O)c2cc3c4c(c2)nc(-c2cc5cccc(Cl)c5n2CC(F)F)n4CCO3)C1 [Example 56, (R)-(3-aminopiperidin-1-yl)(2-(7-chloro-1-(2,2-difluoroethyl)-1H-indol-2-yl)-3,4-dihydro-5-oxa-1,2a-diazaacenaphthylen-7-yl)methanone] | ≤ 1000
N[C@@H]1CCCN(C(=S)c2cc3c4c(c2)nc(-c2cc5ccccc5n2CC2CC2)n4CCN3)C1 [Example 86, (R)-(3-aminopiperidin-1-yl)(2-(1-(cyclopropylmethyl)-1H-indol-2-yl)-5,6-dihydro-4H-imidazo [1,5,4-de]quinoxalin-8-yl)methanethione] | ≤ 1000
COc1ccc2cc(-c3nc4cc(C(=O)N5CCC[C@@H](N)C5)cc5c4n3CCN5C)n(CC3CC3)c2c1 [Example 74, (R)-(3-aminopiperidin-1-yl)(2-(1-(cyclopropylmethyl)-6-methoxy-1H-indol-2-yl)-6-methyl-5,6-dihydro-4H-imidazo[1,5,4-de]quinoxalin-8-yl)methanone] | ≤ 1000
N[C@@H]1CCCN(C(=O)c2cc3c4c(c2)nc(-c2cc5cc(F)c(F)cc5n2CC2CC2)n4CCO3)C1 [Example 32, (R)-(3-aminopiperidin-1-yl)(2-(1-(cyclopropylmethyl)-5,6-difluoro-1H-indol-2-yl)-3,4-dihydro-5-oxa-1,2a-diazaacenaphthylen-7-yl)methanone] | ≤ 1000
COc1ccc2cc(-c3nc4cc(C(=O)N5CCC[C@@H](N)C5)cc5c4n3CCO5)n(CC3CC3)c2c1 [Example 23, (R)-(3-aminopiperidin-1-yl)(2-(1-(cyclopropylmethyl)-6-methoxy-1H-indol-2-yl)-3,4-dihydro-5-oxa-1,2a-diazaacenaphthylen-7-yl)methanone] | ≤ 1000
N[C@@H]1CCCN(C(=O)c2cc3c4c(c2)nc(-c2cc5ccc(F)cc5n2Cc2ccc(F)cc2)n4CCO3)C1 [Example 49, (R)-(3-aminopiperidin-1-yl)(2-(6-fluoro-1-(4-fluorobenzyl)-1H-indol-2-yl)-3,4-dihydro-5-oxa-1,2a-diazaacenaphthylen-7-yl)methanone] | ≤ 1000
N[C@@H]1CCCN(C(=O)c2cc3c4c(c2)nc(-c2cc5ccccc5n2Cc2ccncc2)n4CCN3)C1 [Example 71, (R)-(3-aminopiperidin-1-yl)(2-(1-(pyridin-4-ylmethyl)-1H-indol-2-yl)-5,6-dihydro-4H-imidazo[1,5,4-de]quinoxalin-8-yl)methanone] | ≤ 1000
COCCn1c(-c2nc3cc(C(=O)N4CCC[C@@H](N)C4)cc4c3n2CCO4)cc2ccc(F)cc21 [Example 52] | 1000 to 10000
CC(=O)N1CCn2c(-c3cc4ccccc4n3CC3CC3)nc3cc(C(=O)N4CCC[C@@H](N)C4)cc1c32 [Example 85] | ≤ 1000
N[C@@H]1CCCN(C(=O)c2cc3c4c(c2)nc(-c2cc5cc(-c6cccnc6)ccc5n2CC2CC2)n4CCN3)C1 [Example 68, (R)-(3-aminopiperidin-1-yl)(2-(1-(cyclopropylmethyl)-5-(pyridin-3-yl)-1H-indol-2-yl)-5,6-dihydro-4H-imidazo [1,5,4-de]quinoxalin-8-yl)methanone] | 1000 to 10000
CN1CCn2c(-c3cc4cc(F)ccc4n3CC3CC3)nc3cc(C(=O)N4CCC[C@@H](N)C4)cc1c32 [Example 75, (R)-(3-aminopiperidin-1-yl)(2-(1-(cyclopropylmethyl)-5-fluoro-1H-indol-2-yl)-6-methyl-5,6-dihydro-4H-imidazo[1,5,4-de]quinoxalin-8-yl)methanone] | ≤ 1000
